Test results published in patent US8648090B2, “Indole alkaloid derivatives having opioid receptor agonistic effect, and therapeutic compositions and methods relating to same” (National University Corporation Chiba University, priority 2007, dated 2014).
Like-named read-outs stand apart in the source and are kept apart here.

Tests used:
mice [1] = experiment: Tail-flick test, analgesic effect after oral administration; format: in vivo; conditions: for ED50: Mus musculus; for ED50 / ED50 analgesic effect (tail-flick): mice, (95% confidence limits); for times more potent analgesic effect than morphine: mouse tail-flick test
Description: Analgesia was quantified using the percentage of maximum possible effect (% MPE) and calculated as: % MP=[(test latency−pre-drug latency)/(cut-off time−pre-drug latency)]×100. A cut-off time of 10 s was used to prevent tissue damage. Each value represents mean±S.E.M. of data obtained from 7 to 9 mice.
(§1) Mice respond to a focused heat stimulus by flicking or moving their tail from the path of the stimulus, thereby exposing a photocell located in the tail-flick analgesia meter (Ugo Basile Tail-flick Unit 7360, Ugo Basile, Comerio, Italy) immediately below the tail. The reaction time is automatically recorded. Prior to treatment with drugs, vehicle, or saline, the nociceptive threshold was measured three times, and the mean of the reaction time was used as the pre-drug latency for each mouse. A cut-off time of 10 s was used to prevent tissue damage. Analgesia was quantified using the percentage of maximum possible effect (% MPE) and calculated as: % MPE=[(test latency−pre-drug latency)/(cut-off time−pre-drug latency)]×100.
(§2) The data are expressed as the mean±S.E.M. Statistical analyses were performed with two-tailed Student's t-test for comparison of two groups, and by a one-way analysis of variance followed by a Bonferroni multiple comparison test for comparison of more than two groups. A P value <0.05 was considered statistically significant.

[2] = Gastrointestinal transit (charcoal meal), constipating effect after oral administration; format: in vivo; conditions: mouse, in vivo; oral administration, mice; (95% confidence limits); read-out: ED50 inhibitory effect on gastrointestinal transit (GIT), constipating ED50
Experimental: (§3) The inhibition of gastrointestinal transit (%) was calculated as: Inhibition of gastrointestinal transit (%)=[(saline or vehicle GIT−drug GIT)/(saline or vehicle GIT)]×100. Each value represents mean±S.E.M. of 7 or 8 mice.
(§4) Mice were fasted, with water available ad libitum, for 18 h before the experiments. […] Thirty minutes after administration of the charcoal meal, the animal was sacrificed by cervical dislocation, and the small intestine from the pylorus to the ileocecum was carefully removed. Both the length of the small intestine from the pylorus to the ileocecum and the farthest distance to which the charcoal meal had traveled were measured. For each animal, the gastrointestinal transit (GIT) was calculated as the percentage of distance traveled by the charcoal meal relative to the total length of the small intestine. The inhibition of gastrointestinal transit (%) was calculated as: Inhibition of gastrointestinal transit (%)=[(saline or vehicle GIT−drug GIT)/(saline or vehicle GIT)]×100.
as §2

guinea pig ileum = experiment: Twitch contraction induced by electrical stimulation in guinea pig isolated ileum (Magnus assay); conditions: for Emax / EC50: Cavia porcellus; for EC50: read-out: pD2 value (−log M) (converted); for Relative Potency (%): against morphine (100); for Inhibitory activity (%): maximum inhibition as percentage of that by morphine, intrinsic activity on opioid receptors; for pD2 value (−log M): negative logarithm of EC50, mean ± SEM of five or six animals; for Maximum inhibition (%): response at plateau, twitch contraction regarded as 100%
Experimental: The opioid agonistic effect was evaluated in an experiment involving twitch contraction induced by electrical stimulation of guinea pig ileum.
The guinea-pig ileum was dissected and placed in Krebs-Henseleit solution (in mM: NaCl, 112.08; KCl, 5.90; CaCl2, 1.97; MgCl2, 1.18; NaH2PO4, 1.22; NaHCO3, 25.00, and glucose, 11.49). The ileum was placed under 1 g tension in a 5 ml organ bath containing the nutrient solution. The bath was maintained at 37° C. and continuously bubbled with a mixture of 95% O2 and 5% CO2. Tissues were stimulated by a platinum needle-ring (the ring was placed 20 mm above the base of a 5 mm long needle) electrode. After equilibration, the ileum was transmurally stimulated with monophasic pulses (0.2 Hz and 0.1 ms duration) by a stimulator (SEN-7203, Nihon Kohden, Tokyo, Japan). Contractions were isotonically recorded by using a displacement transducer (NEC Type 45347, San-ei Instruments Ltd., Tokyo, Japan). The effects of drug treatments on the twitch contractions evoked by transmural stimulation elicited through the ring electrodes were examined. The height of the twitch response to transmural stimulation was measured before and after the drug challenge. The responses were expressed as % inhibition of the twitch response to the transmural stimulation before the drug challenge.
Male albino guinea pigs (Japan SLC) weighing 320-550 g were used. Animals were housed in a temperature-controlled room at 24° C. with lights on from 07:00-19:00 and had free access to food and water. The guinea-pig ileum was dissected and placed in Krebs-Henseleit solution (in mM: NaCl, 112.08; KCl, 5.90; CaCl2, 1.97; MgCl2, 1.18; NaH2PO4, 1.22; NaHCO3, 25.00, and glucose, 11.49). The ileum was set up under 1 g of tension in 5 mL of an organ bath containing the nutrient solution. The bath was maintained at 37° C. and continuously bubbled with a gas mixture of 95% O2 and 5% CO2. At the start of each experiment, the maximum response to acetylcholine (3 μM) was obtained for each tissue to check its suitability. Tissues were stimulated through platinum needle-ring (a ring was placed 20 mm above the base of a needle 5 mm in length) electrodes using square wave pulses of supramaximal voltage. The ileum was transmurally stimulated with monophasic pulses (0.2 Hz) at 0.3 ms duration by a stimulator (SEN-7203, Nihon Kohden, Tokyo, Japan). Contractions were isotonically recorded with a displacement transducer (NEC, San-ei Instruments Ltd., Type 45347), a DC strain amplifier (San-ei 6M92), and a DC recorder (Hitachi, Mod 056, Tokyo, Japan). All concentration-response curves were constructed in a cumulative manner. The height of the twitch response to transmural stimulation was measured before and after drug challenge. The twitch response remaining after each sample addition was determined by dividing the height after its addition by the height before addition multiplied by 100. To obtain the percentage inhibition, this value was subtracted from 100. […] To investigate the involvement of opioid receptors in the inhibitory effect of the samples, the antagonistic effect of the opioid receptor antagonist naloxone was examined. The inhibitory effects of samples on electrically stimulated contraction were regarded as opioid activities when the antagonistic effect of naloxone was observed.

mice [3] = experiment: Gastrointestinal transit (charcoal meal), constipating effect after oral administration; format: in vivo; conditions: oral, GIT ED50 versus tail-flick ED50
Experimental: as §3, §4, §2

mice [4] = experiment: Effects of opioid receptor antagonists on analgesia induced by s.c. administration, mouse tail-flick test; format: in vivo; conditions: s.c. compound; for effect of naloxone on analgesic effect: non-selective opioid antagonist naloxone, data not shown; for effect of naltrindole on analgesic effect: δ-opioid receptor selective antagonist NTI 3 mg/kg; for effect of nor-binaltorphimine on analgesic effect: κ-opioid receptor selective antagonist norBNI 20 mg/kg; for effect of β-funaltrexamine on analgesic effect: μ-opioid receptor selective antagonist β-FNA 40 mg/kg
Experimental: The analgesic effects were determined in the mouse tail-flick test after s.c. administration of the following antagonists: β-funaltrexamine (β-FNA, 40 mg/kg), naltrindole (NTI, 3 mg/kg), and nor-binaltorphimine (norBNI, 20 mg/kg). Measurements were performed 15 min after s.c. administration of compound 11, compound 26 and compound 27. […] Each value represents mean±S.E.M. of 8 or 9 mice.
as §1

[5] = read-out: Inhibitory activity (%)
[6] = read-out: Maximum inhibition (%)

Structure (SMILES) | Emax (guinea pig ileum; [5]) | Emax (guinea pig ileum; [6]) | EC50 (guinea pig ileum) | Relative Potency (%) (guinea pig ileum) | further results
C[C@@]12Nc3ccccc3[C@]1(C)OCCO2 | – | – | – | – | melting point: 79 to 81 °C
c1ccc2c(c1)N[C@]13CCCC[C@]21OCCO3 | – | – | – | – | melting point: 156 to 157 °C
CC[C@@H]1CN2CC[C@@]3(O)C(=Nc4cccc(OC)c43)[C@@H]2C[C@@H]1/C(=C\OC)C(=O)OC [Compound 1, 7-hydroxymitragynine, reference compound] | 104% | 90.8 ± 3.4% | 16.6 nM | 426% | ED50 (mice [1]): 4.43 mg/kg; times more potent analgesic effect than morphine (mice [1]): 14 times; ED50 [2]: 7.5 mg/kg
CC[C@@H]1CN2CCc3c([nH]c4cccc(OC)c34)[C@@H]2C[C@@H]1/C(=C\OC)C(=O)OC [Compound 2, Mitragynine, reference compound] | 83% | 72 ± 5% | 316 nM | 22% | –
CC[C@@H]1CN2CC[C@@]34OCCO[C@@]3(Nc3cccc(OC)c34)[C@@H]2C[C@@H]1/C(=C\OC)C(=O)OC [Compound 3] | 40% | 35 ± 11% | 20 nM | 354% | –
CC[C@@H]1CN2CC[C@@]34OCCO[C@@]3(Nc3ccc(F)c(OC)c34)[C@@H]2C[C@@H]1/C(=C\OC)C(=O)OC [Compound 11] | 96% | 83.4 ± 3.2% | 3.98 nM | 1778% | ED50 (mice [1]): 2.84 mg/kg; times more potent analgesic effect than morphine (mice [1]): 22 times; ED50 [2]: 11.1 mg/kg; constipating ED50 times larger than analgesic ED50 (mice [3]): 4 times; effect of naloxone on analgesic effect (mice [4]): completely blocked; effect of naltrindole on analgesic effect (mice [4]): ineffective; effect of nor-binaltorphimine on analgesic effect (mice [4]): markedly inhibited; effect of β-funaltrexamine on analgesic effect (mice [4]): markedly inhibited
CC[C@@H]1CN2CC[C@@]34OCCO[C@@]3(Nc3ccc(Cl)c(OC)c34)[C@@H]2C[C@@H]1/C(=C\OC)C(=O)OC [Compound 12a] | – | – | – | 288% | Inhibitory activity (%) (guinea pig ileum): 55%; pD2 value (−log M) (guinea pig ileum): 7.61 ± 0.17 −log M; Maximum inhibition (%) (guinea pig ileum): 48.1 ± 9.3%
CC[C@@H]1CN2CC[C@@]34OCCO[C@@]3(Nc3ccc([N+](=O)[O-])c(OC)c34)[C@@H]2C[C@@H]1/C(=C\OC)C(=O)OC [Compound 14a] | – | – | – | 537% | Inhibitory activity (%) (guinea pig ileum): 75%; pD2 value (−log M) (guinea pig ileum): 7.88 ± 0.18 −log M; Maximum inhibition (%) (guinea pig ileum): 65.0 ± 4.3%
CC[C@@H]1CN2CC[C@@]3(O)C(=Nc4ccc(F)c(OC)c43)[C@@H]2C[C@@H]1/C(=C\OC)C(=O)OC [Compound 22, 7-Hydroxy-10-fluoromitragynine] | 95% | 82.5 ± 1.8% | 13.5 nM | 524% | –
CC[C@@H]1CN2CC[C@@]3(O)C(=Nc4ccc(Cl)c(OC)c43)[C@@H]2C[C@@H]1/C(=C\OC)C(=O)OC [Compound 23, 7-Hydroxy-10-chloromitragynine] | 86% | 74.8 ± 3% | 29.5 nM | 239% | –
CC[C@@H]1CN2CC[C@@]3(O)C(=Nc4ccc(Br)c(OC)c43)[C@@H]2C[C@@H]1/C(=C\OC)C(=O)OC [Compound 24, 7-Hydroxy-10-bromomitragynine] | 71% | 61.7 ± 6.2% | 35.5 nM | 199% | –
CCC1CN2CCC3(O)c4c(ccc(F)c4OC)NC3C2CC1C(=COC)C(=O)OC (centres unmarked) [Compound 27] | – | – | – | 4571% | ED50 analgesic effect (tail-flick) (mice [1]): 0.263 (0.165-0.420) mg/kg; ED50 analgesic effect (tail-flick) (mice [1]; listed as compound 27): 0.26 mg/kg; times more potent analgesic effect than morphine (mice [1]): 240 times; effect of naloxone on analgesic effect (mice [4]): completely blocked; effect of naltrindole on analgesic effect (mice [4]): moderately inhibited; effect of nor-binaltorphimine on analgesic effect (mice [4]): had no effect; effect of β-funaltrexamine on analgesic effect (mice [4]): markedly inhibited; Inhibitory activity (%) (guinea pig ileum): 102%; pD2 value (−log M) (guinea pig ileum): 8.81 ± 0.09 −log M; Maximum inhibition (%) (guinea pig ileum): 89.0 ± 2.3%
CN1CC[C@]23c4c5ccc(O)c4O[C@H]2[C@@H](O)C=C[C@H]3[C@H]1C5 [Morphine, reference compound] | 100% | 87.2 ± 1.8% | – | – | ED50 (mice [1]): 63 mg/kg; ED50 [2]: 11.7 mg/kg; constipating ED50 times smaller than analgesic ED50 (mice [3]): 5 times
